From DBAASP
In brackets after ≈: the same amount, converted by molar mass. Values belong to the compound of their own block, whether it stands above or below them.

Assays:
Assay in all cases: ≥ marks a high value that may be exact or a test limit, other limits are often not marked, values filed in µg/mL are converted to µM
[1] = tested on: Streptococcus mutans
[2] = tested on: Staphylococcus aureus ATCC 6538
[3] = tested on: Staphylococcus epidermidis ATCC 12228
[4] = tested on: Micrococcus luteus ATCC 4698
[5] = tested on: Escherichia coli DH5alpha
[6] = tested on: Micrococcus luteus
[7] = tested on: Pseudomonas aeruginosa ATCC 15692
[8] = tested on: Saccharomyces cerevisiae
[9] = tested on: Staphylococcus aureus ATCC 25923
[10] = tested on: Escherichia coli ATCC 25922
[11] = tested on: Pseudomonas aeruginosa ATCC 27853
[12] = tested on: Escherichia coli ML-35
[13] = tested on: Bacillus megaterium
[14] = tested on: Salmonella enterica subsp. enterica serovar Typhimurium ATCC 14028
[15] = tested on: Escherichia coli K-12
[16] = tested on: Staphylococcus aureus
[17] = tested on: Staphylococcus aureus ATCC 43300
[18] = tested on: Staphylococcus aureus ATCC 700699
[19] = tested on: Staphylococcus aureus ATCC 29213
[20] = tested on: Bacillus subtilis ATCC 23857
[21] = tested on: Micrococcus luteus ATCC 9341
[22] = tested on: Salmonella typhimurium
[23] = tested on: Pseudomonas aeruginosa
[24] = tested on: Klebsiella pneumoniae
[25] = tested on: Escherichia coli ATCC 8739

SMILES: CC[C@H](C)[C@H](NC(=O)[C@H](C)NC(=O)[C@H](CC(N)=O)NC(=O)[C@@H](NC(=O)CNC(=O)CNC(=O)[C@H](CCCCN)NC(=O)[C@H](C)NC(=O)[C@H](Cc1ccccc1)NC(=O)[C@H](CCCCN)NC(=O)[C@H](CCCCN)NC(=O)[C@H](C)NC(=O)[C@H](Cc1ccccc1)NC(=O)[C@H](CC(N)=O)NC(=O)[C@H](C)NC(=O)[C@@H](NC(=O)[C@H](CCCCN)NC(=O)[C@H](CO)NC(=O)[C@H](CCSC)NC(=O)[C@H](Cc1ccccc1)NC(=O)CN)C(C)C)C(C)C)C(=O)N[C@@H](CCSC)C(=O)N[C@@H](CC(N)=O)C(=O)N[C@@H](CCC(N)=O)C(=O)N[C@@H](CCCCN)C(=O)O [GFMSKVANFAKKFAKGGVNAIMNQK]
MIC [6]: 0.5 µM (≈ 1.34 µg/mL)
MIC [7]: 4 µM (≈ 10.7 µg/mL)
MIC [8]: 8 µM (≈ 21.5 µg/mL)
MIC [9]: 128 µM (≈ 344 µg/mL)
MIC [10]: 1 µM (≈ 2.69 µg/mL)

SMILES: CC(C)C[C@H](NC(=O)CNC(=O)[C@H](C)NC(=O)[C@@H](NC(=O)[C@H](CC(N)=O)NC(=O)[C@H](CO)NC(=O)[C@H](CC(C)C)NC(=O)[C@H](CC(C)C)NC(=O)CN)C(C)C)C(=O)N[C@@H](CC(C)C)C(=O)N[C@@H](CCCCN)C(=O)N[C@@H](CCC(N)=O)C(=O)N[C@@H](Cc1ccccc1)C(=O)N[C@@H](C)C(=O)N[C@@H](CCCCN)C(=O)NCC(=O)NCC(=O)N[C@H](C(=O)N[C@@H](CC(N)=O)C(=O)N[C@@H](C)C(=O)N[C@H](C(=O)N[C@@H](CC(C)C)C(=O)N[C@@H](CC(N)=O)C(=O)N1CCC[C@H]1C(=O)N[C@@H](CCCCN)C(=O)O)C(C)C)C(C)C [GLLSNVAGLLKQFAKGGVNAVLNPK]
MIC [6]: 1 µM (≈ 2.51 µg/mL)
MIC [7]: ≥ 32 µM
MIC [8]: ≥ 32 µM
MIC [9]: 128 µM (≈ 321 µg/mL)
MIC [10]: 8 µM (≈ 20.1 µg/mL)

SMILES: CC[C@H](C)[C@H](NC(=O)[C@H](CCCCN)NC(=O)[C@H](CCCCN)NC(=O)[C@H](CC(C)C)NC(=O)[C@H](CCCCN)NC(=O)[C@H](CCC(=O)O)NC(=O)[C@H](CCCCN)NC(=O)[C@@H]1CCCN1C(=O)[C@H](CCCCN)NC(=O)[C@H](CC(N)=O)NC(=O)[C@H](CCCN=C(N)N)NC(=O)[C@@H]1CCCN1C(=O)[C@H](CCCCN)NC(=O)[C@H](CCCN=C(N)N)NC(=O)[C@H](CC(C)C)NC(=O)[C@H](CCCN=C(N)N)NC(=O)[C@H](CCCCN)NC(=O)[C@H](CCCN=C(N)N)NC(=O)[C@H](CC(C)C)NC(=O)CN)C(=O)O [GLRKRLRKPRNKPKEKLKKI]
MIC [11]: > 64 µM
MIC [9]: > 64 µM
MIC [12]: ≥ 64 µM
MIC [13]: ≥ 64 µM
MIC [10]: > 64 µM
MIC [14]: > 64 µM

SMILES: CC[C@H](C)[C@H](N)C(=O)NCC(=O)N[C@@H](CCCCN)C(=O)N[C@@H](CCC(=O)O)C(=O)N[C@@H](Cc1ccccc1)C(=O)N[C@@H](CCCCN)C(=O)N[C@@H](CCCNC(=N)N)C(=O)N[C@H](C(=O)N[C@H](C(=O)N[C@@H](CCC(N)=O)C(=O)N[C@@H](CCCNC(=N)N)C(=O)N[C@H](C(=O)N[C@@H](CCCCN)C(=O)N[C@@H](CC(=O)O)C(=O)N[C@@H](Cc1ccccc1)C(=O)N[C@@H](CC(C)C)C(=O)N[C@@H](CCCNC(=N)N)C(=O)N[C@@H](CC(N)=O)C(=O)N[C@@H](CC(C)C)C(=O)N[C@H](C(=O)N1CCC[C@H]1C(=O)N[C@@H](CCCNC(=N)N)C(=O)N[C@H](C(=O)N[C@@H](CCC(=O)O)C(=O)N[C@H](C=O)CO)[C@@H](C)O)C(C)C)[C@@H](C)CC)C(C)C)[C@@H](C)CC [IGKEFKRIVQRIKDFLRNLVPRTES]
MIC [15]: ≥ 80 µM
MIC [9]: 168 µM (≈ 509 µg/mL)
MIC [16]: 168 µM (≈ 509 µg/mL)
MIC [17]: 168 µM (≈ 509 µg/mL)
MIC [18]: ≥ 336 µM

SMILES: CC[C@H](C)[C@H](N)C(=O)N[C@@H](CC(C)C)C(=O)N1CCC[C@H]1C(=O)N[C@@H](Cc1c[nH]c2ccccc12)C(=O)N[C@@H](CCCCN)C(=O)N[C@@H](Cc1c[nH]c2ccccc12)C(=O)N1CCC[C@H]1C(=O)N[C@@H](Cc1c[nH]c2ccccc12)C(=O)N[C@@H](Cc1c[nH]c2ccccc12)C(=O)N[C@@H](C)C(=O)N[C@@H](Cc1c[nH]c2ccccc12)C(=O)N[C@@H](CCCN=C(N)N)C(=O)N[C@@H](CCCN=C(N)N)C(N)=O [ILPWKWPWWAWRR]
MIC [21]: 1.6 µM (≈ 3.01 µg/mL)
MIC [22]: ≥ 50 µM
MIC [23]: 50 µM (≈ 94 µg/mL)
MIC [24]: 25 µM (≈ 47 µg/mL)
MIC [5]: 15 µM (≈ 28.2 µg/mL)

SMILES: CC[C@H](C)[C@H](NC(=O)[C@H](CCCCN)NC(=O)[C@H](Cc1ccc(O)cc1)NC(=O)[C@H](Cc1ccccc1)NC(=O)[C@H](CCC(N)=O)NC(=O)[C@H](CO)NC(=O)[C@H](CCC(=O)O)NC(=O)[C@H](CCCN=C(N)N)NC(=O)[C@H](CC(N)=O)NC(=O)[C@@H]1CCCN1)C(=O)N[C@@H](CC(C)C)C(=O)N[C@@H](CCCN=C(N)N)C(=O)N[C@@H](CCCCN)C(=O)N[C@H](C(=O)N[C@@H](CC(C)C)C(=O)N[C@@H](CO)C(=O)N[C@@H](CCCCN)C(=O)N[C@H](C(=O)N[C@H](C(=O)O)C(C)C)[C@@H](C)CC)[C@@H](C)CC [PNRESQFYKILRKILSKIV]
MIC [25]: 6.86 µM (≈ 16 µg/mL)
MIC [9]: 27.4 µM (≈ 64 µg/mL)

SMILES: CC[C@H](C)[C@H](NC(=O)[C@H](CCCCN)NC(=O)[C@H](CCCN=C(N)N)NC(=O)CNC(=O)[C@H](CC(C)C)NC(=O)[C@H](CCCN=C(N)N)NC(=O)[C@H](CCCN=C(N)N)NC(=O)[C@H](CC(C)C)NC(=O)CNC(=O)[C@H](CCCN=C(N)N)NC(C)=O)C(=O)N[C@@H](CCCCN)C(=O)N[C@@H](CCCCN)C(=O)NCC(=O)N[C@@H](CC(C)C)C(=O)N[C@@H](CCCCN)C(=O)N[C@@H](CCCCN)C(=O)N[C@@H](Cc1ccc(O)cc1)C(=O)NCC(N)=O [RGLRRLGRKIKKGLKKYG]
MIC [11]: 17.7 µM (≈ 38.3 µg/mL)
MIC [25]: 17.7 µM (≈ 38.3 µg/mL)
MIC [24]: 70.7 µM (≈ 153 µg/mL)
MIC [10]: 35.4 µM (≈ 76.7 µg/mL)

More lines, now with the values ahead:

MIC [1]: 16.5 µM (≈ 22.6 µg/mL)
SMILES: CC(C)C[C@H](NC(=O)[C@H](CCCN=C(N)N)NC(=O)[C@H](CCCCN)NC(=O)[C@H](C)N)C(=O)N[C@@H](CC(C)C)C(=O)N[C@@H](CCCCN)C(=O)N[C@H](C(=O)N[C@@H](CC(C)C)C(=O)N[C@@H](CCCCN)C(=O)N[C@@H](CCCN=C(N)N)C(=O)N[C@@H](Cc1ccccc1)C(N)=O)C(C)C [AKRLLKVLKRF]

MIC [2]: 5.58 µM (≈ 8 µg/mL)
MIC [3]: 9.76 µM (≈ 14 µg/mL)
MIC [4]: 4.18 µM (≈ 6 µg/mL)
MIC [5]: 27.9 µM (≈ 40 µg/mL)
SMILES: CC(C)C[C@H](NC(=O)[C@H](CC(C)C)NC(=O)[C@H](CCCCN)NC(=O)[C@H](CO)NC(=O)[C@@H](NC(=O)[C@@H](NC(=O)[C@H](CCCCN)NC(=O)[C@H](Cc1ccccc1)NC(=O)[C@H](CC(C)C)NC(=O)[C@H](C)NC(=O)CNC(=O)[C@H](CC(C)C)NC(=O)[C@@H](N)Cc1ccccc1)C(C)C)C(C)C)C(=O)O [FLGALFKVVSKLL]

MIC [3]: > 256 µM
MIC [19]: > 256 µM
MIC [20]: ≥ 256 µM
MIC [12]: ≥ 256 µM
MIC [10]: > 256 µM
SMILES: CC[C@H](C)[C@H](N)C(=O)N[C@@H](CC(C)C)C(=O)NCC(=O)N[C@H](C(=O)N[C@H](C(=O)N1CCC[C@H]1C(=O)NCC(=O)N[C@@H](CC(C)C)C(=O)N[C@@H](CC(C)C)C(=O)N[C@@H](CCCCN)C(=O)NCC(=O)N[C@@H](CC(C)C)C(N)=O)[C@@H](C)CC)[C@@H](C)O [ILGTIPGLLKGL]

MIC [25]: ≥ 135 µM
MIC [9]: > 135 µM
SMILES: CC[C@H](C)[C@H](NC(=O)[C@H](CCCCN)NC(=O)[C@@H](N)CCCCN)C(=O)N[C@@H](CC(N)=O)C(=O)N[C@@H](CC(N)=O)C(=O)N[C@H](C(=O)N[C@H](C(=O)N[C@@H](CC(C)C)C(=O)N[C@@H](CO)C(=O)NCC(=O)N[C@@H](CC(C)C)C(=O)N[C@@H](CC(=O)O)C(=O)N[C@@H](CO)C(=O)N[C@H](C(=O)N[C@@H](C)C(=O)N[C@@H](CO)C(=O)N[C@@H](Cc1ccccc1)C(=O)N[C@@H](CO)C(=O)O)C(C)C)[C@@H](C)CC)[C@@H](C)O [KKINNTILSGLDSVASFS]

MIC [21]: 5.57 µM (≈ 6.24 µg/mL)
MIC [2]: 5.57 µM (≈ 6.24 µg/mL)
SMILES: CC(C)[C@H](NC(=O)[C@H](CCCCN)NC(=O)[C@H](Cc1ccccc1)NC(=O)[C@@H](NC(=O)[C@@H](NC(=O)[C@@H](N)CCCCN)C(C)C)C(C)C)C(=O)N[C@@H](CCCCN)C(=O)N[C@@H](Cc1ccccc1)C(=O)N[C@@H](CCCCN)C(N)=O [KVVFKVKFK]
